We go through 32 compounds from ChEMBL document CHEMBL1128380, “Antimalarial activity of novel ring-contracted artemisinin derivatives” (1995).

Holding throughout (format): functional
For test [1], the system named is Mus musculus. The test can be described thus: Antimalarial activity was determined by Blood schizonticidal activity in mice (Mus musculus) infected with Plasmodium berghei K173 at 20 (mg/kg x5) peroral dosage; Cured/treated = 0/6.
The subject of test [2] is Mus musculus. The test can be described thus: Antimalarial activity was determined by Blood schizonticidal activity in mice (Mus musculus) infected with Plasmodium berghei K173 at 5 (mg/kg x5) subcutaneous dosage; Cured/treated = 0/6 on day 7.
In test [3] the test system is Mus musculus. The test can be described thus: Antimalarial activity was determined by Blood schizonticidal activity in mice (Mus musculus) infected with Plasmodium berghei K173 at 5 (mg/kg x5) subcutaneous dosage; Cured/treated = 2/6 on day 7.
In test [4] the test system is Mus musculus. The test can be described thus: Antimalarial activity was determined by Blood schizonticidal activity in mice (Mus musculus) infected with Plasmodium berghei K173 at 5 (mg/kg x5) subcutaneous dosage; Cured/treated = 1/6 on day 7.
Test [5] deals with Mus musculus. The test can be described thus: Antimalarial activity was determined by blood schizonticidal activity in mice (Mus musculus) infected with Plasmodium berghei K173 at 10 (mg/kgx5) subcutaneous dosage; Cured/treated = 0/6 on day 7.
The test system of test [6] is Mus musculus. Description: Antimalarial activity was determined by Blood schizonticidal activity in mice (Mus musculus) infected with Plasmodium berghei K173 at 5 (mg/kg x5) subcutaneous dosage; Cured/treated = 6/6 on day 7.
Test [7] concerns Mus musculus. Description: Antimalarial activity was determined by blood schizonticidal activity in mice (Mus musculus) infected with Plasmodium berghei K173 at 1.25 (mg/kgx5) subcutaneous dosage; Cured/treated = 26/34 on day 7.
In test [8] the test system is Mus musculus. The test can be described thus: Antimalarial activity was determined by Blood schizonticidal activity in mice (Mus musculus) infected with Plasmodium berghei K173 at 25 (mg/kgx5) peroral dosage; Cured/treated = 16/16.
The test system of test [9] is Mus musculus. The test can be described thus: Antimalarial activity was determined by Blood schizonticidal activity in mice (Mus musculus) infected with Plasmodium berghei K173 at 2.5 (mg/kgx5) subcutaneous dosage; Cured/treated = 28/28 on day 7.
Test [10] has as its system Mus musculus. Description: Antimalarial activity was determined by Blood schizonticidal activity in mice (Mus musculus) infected with Plasmodium berghei K173 at 1 (mg/kg x5) subcutaneous dosage; Cured/treated = 10/22 on day 7.
Test [11] concerns Mus musculus. Description: Antimalarial activity was determined by Blood schizonticidal activity in mice (Mus musculus) infected with Plasmodium berghei NS at 25 (mg/kgx5) peroral dosage; Cured/treated = 6/6.
Test [12] concerns Mus musculus. Description: Antimalarial activity was determined by Blood schizonticidal activity in mice (Mus musculus) infected with Plasmodium berghei K173 at 15 (mg/kg x5) peroral dosage; Cured/treated = 19/22 on day 7.
In test [13] the test system is Mus musculus. The test can be described thus: Antimalarial activity was determined by Blood schizonticidal activity in mice (Mus musculus) infected with Plasmodium berghei NS at 5 (mg/kg x5) subcutaneous dosage; Cured/treated = 22/22.
In test [14] the test system is Mus musculus. The test can be described thus: Antimalarial activity was determined by blood schizonticidal activity in mice (Mus musculus) infected with Plasmodium berghei K173 at 10 (mg/kgx5) peroral dosage; Cured/treated = 34/39 on day 7.
Test [15] relates to Mus musculus. Description: Antimalarial activity was determined by blood schizonticidal activity in mice (Mus musculus) infected with Plasmodium berghei NS at 2.5 (mg/kgx5) subcutaneous dosage; Cured/treated = 11/12.
Test [16] concerns Mus musculus. The test can be described thus: Antimalarial activity was determined by Blood schizonticidal activity in mice (Mus musculus) infected with Plasmodium berghei K173 at 2.5 (mg/kgx5) subcutaneous dosage; Cured/treated = 0/6 on day 7.
In test [17] the test system is Mus musculus. Description: Antimalarial activity was determined by Blood schizonticidal activity in mice (Mus musculus) infected with Plasmodium berghei K173 at 25 (mg/kgx5) peroral dosage; Cured/treated = 0/6 on day 7.
For test [18], the system named is Mus musculus. The test can be described thus: Antimalarial activity was determined by blood schizonticidal activity in mice (Mus musculus) infected with Plasmodium berghei K173 at 5 (mg/kg x5) subcutaneous dosage; Cured/treated = 6/6.
Test [19] relates to Mus musculus. Description: Antimalarial activity was determined by Blood schizonticidal activity in mice (Mus musculus) infected with Plasmodium berghei K173 at 10 (mg/kgx5) subcutaneous dosage; Cured/treated = 6/6.
Test [20] concerns Mus musculus. The test can be described thus: Antimalarial activity was determined by blood schizonticidal activity in mice (Mus musculus) infected with Plasmodium berghei K173 at 2.5 (mg/kgx5) subcutaneous dosage; Cured/treated = 0/4 on day 7.
Test [21] relates to Mus musculus. Description: Antimalarial activity was determined by Blood schizonticidal activity in mice (Mus musculus) infected with Plasmodium berghei K173 at 5 (mg/kg x5) subcutaneous dosage; Cured/treated = 5/5.
Test [22] relates to Mus musculus. Description: Antimalarial activity was determined by Blood schizonticidal activity in mice (Mus musculus) infected with Plasmodium berghei K173 at 10 (mg/kgx5) subcutaneous dosage; Cured/treated = 0/5 on day 7.
The test system of test [23] is Mus musculus. The test can be described thus: Antimalarial activity was determined by Blood schizonticidal activity in mice (Mus musculus) infected with Plasmodium berghei K173 at 5 (mg/kg x5) subcutaneous dosage; Cured/treated = 0/5 on day 7.
Test [24] deals with Mus musculus. Description: Antimalarial activity was determined by blood schizonticidal activity in mice (Mus musculus) infected with Plasmodium berghei K173 at 25 (mg/kgx5) peroral dosage; Cured/treated = 0/6.
Test [25] deals with Mus musculus. Description: Antimalarial activity was determined by Blood schizonticidal activity in mice (Mus musculus) infected with Plasmodium berghei K173 at 5 (mg/kg x5) subcutaneous dosage; Cured/treated = 5/6 on day 7.
Test [26] deals with Mus musculus. Description: Antimalarial activity was determined by Blood schizonticidal activity in mice (Mus musculus) infected with Plasmodium berghei K173 at 10 (mg/kgx5) subcutaneous dosage; Cured/treated = 0/4 on day 7.

For the compound `CCN(CC)CCOC[C@@]1(C)O[C@@H]2O[C@]3(C)CCC4[C@H](C)CC[C@@H]1[C@]42OO3` (some centres not stated), the Cured/treated with Mus musculus [1] and with Mus musculus [2] was 0 throughout.
Consider `C[C@@H]1CC[C@@H]2[C@]34OO[C@@](C)(CCC13)O[C@H]4O[C@]2(C)C(=O)Sc1ccccc1` (some centres not stated), for which the Cured/treated with Mus musculus [3] was 2.
Regarding `C[C@@H]1CC[C@@H]2[C@]34OO[C@@](C)(CCC13)O[C@H]4O[C@]2(C)CC(=O)ONc1ccc(Cl)cc1` (some centres not stated), the Cured/treated was 1 in the test on Mus musculus [4] and 0 with Mus musculus [1].
Turning to `C[C@@H]1CC[C@@H]2[C@]34OO[C@@](C)(CCC13)O[C@H]4O[C@]2(C)COC(=O)C(=O)O` (some centres not stated), the Cured/treated with Mus musculus [5] worked out at 0.
In turn, `C[C@@H]1CC[C@@H]2[C@]34OO[C@@](C)(CCC13)O[C@H]4O[C@]2(C)C(=O)N1CCN(C)CC1` (some centres not stated) yielded a Cured/treated in the test with Mus musculus [5] of 0.
Compound `C[C@@H]1CC[C@@H]2[C@]34OO[C@@](C)(CCC13)O[C@H]4O[C@]2(C)CO/C(S)=N/c1ccccc1` (some centres not stated) showed a Cured/treated in the test with Mus musculus [6] of 6.
Turning to `C=CC/N=C(\S)OC[C@@]1(C)O[C@@H]2O[C@]3(C)CCC4[C@H](C)CC[C@@H]1[C@]42OO3` (some centres not stated), the Cured/treated in the test on Mus musculus [5] worked out at 0.
Take `C[C@@H]1CC[C@@H]2[C@]34OO[C@@](C)(CCC13)O[C@H]4O[C@]2(C)CO/C(S)=N/c1ccc(Cl)cc1` (some centres not stated): the Cured/treated stood at 26 in the test on Mus musculus [7]; 16 with Mus musculus [8]; 28 in the test with Mus musculus [9]; 10 in the test on Mus musculus [10]; 6 with Mus musculus [11]; 19 in the test with Mus musculus [12]. Moreover, the Cured/treated with Mus musculus [13] came to 22; with Mus musculus [14], 34; with Mus musculus [15], 11.
With `C[C@@H]1CC[C@@H]2[C@]34OO[C@@](C)(CCC13)O[C@H]4O[C@]2(C)CO/C(S)=N\c1ccc(F)cc1` (some centres not stated), the Cured/treated was determined as 0 in the test with Mus musculus [16], 0 in the test on Mus musculus [17] and 6 in the test on Mus musculus [18].
In the case of `CCOC(=O)c1cc(Cl)ccc1/N=C(/S)OC[C@@]1(C)O[C@@H]2O[C@]3(C)CCC4[C@H](C)CC[C@@H]1[C@]42OO3` (some centres not stated), in the test on Mus musculus [5], the Cured/treated turned out to be 0.
In turn, `C[C@@H]1CCC2[C@]34OOC(C)(CCC13)O[C@H]4O[C@]2(C)CO` (single isomer, unassigned) yielded a Cured/treated with Mus musculus [5] of 0.
`C[C@@H]1CCC2[C@]34OOC(C)(CCC13)O[C@H]4O[C@]2(C)C(=O)O` (single isomer, unassigned): in the test with Mus musculus [5], the Cured/treated is listed as 0.
As for `C#CCOC[C@@]1(C)O[C@@H]2OC3(C)CCC4[C@H](C)CC[C@@H]1[C@]42OO3` (single isomer, unassigned), the Cured/treated stood at 6 with Mus musculus [19] and 0 in the test on Mus musculus [2].
In the test with Mus musculus [2], `C[C@@H]1CC[C@@H]2[C@]34OOC(C)(CCC13)O[C@H]4O[C@]2(C)COC/C=C/c1ccccc1` (single isomer, unassigned) registered a Cured/treated of 0.
In turn, `C[C@@H]1CC[C@@H]2[C@]34OOC(C)(CCC13)O[C@H]4O[C@]2(C)C(=O)OCCBr` (single isomer, unassigned) had a Cured/treated in the test with Mus musculus [2] of 0.
Take `C=CCOC(=O)[C@@]1(C)O[C@@H]2OC3(C)CCC4[C@H](C)CC[C@@H]1[C@]42OO3` (single isomer, unassigned): the Cured/treated in the test with Mus musculus [5] is reported as 0.
As for `C[C@@H]1CC[C@@H]2[C@]34OOC(C)(CCC13)O[C@H]4O[C@]2(C)/C=C/c1ccc(C(F)(F)F)cc1` (single isomer, unassigned), the figures for the Cured/treated with Mus musculus [20] and in the test on Mus musculus [21] were 0 and 5, respectively.
In turn, `CCOC(=O)C(=C[C@@]1(C)O[C@@H]2OC3(C)CCC4[C@H](C)CC[C@@H]1[C@]42OO3)C(=O)OCC` (single isomer, unassigned) showed a Cured/treated in the test with Mus musculus [22] of 0.
In the test on Mus musculus [23], `CCOC(=O)/C=C\[C@@]1(C)O[C@@H]2OC3(C)CCC4[C@H](C)CC[C@@H]1[C@]42OO3` (single isomer, unassigned) registered a Cured/treated of 0.
For the compound `C[C@@H]1CC[C@@H]2[C@]34OOC(C)(CCC13)O[C@H]4O[C@]2(C)C(=O)OCCCl` (single isomer, unassigned), the Cured/treated in the test on Mus musculus [2] and with Mus musculus [24] was 0 each time.
Turning to `C[C@@H]1CC[C@@H]2[C@]34OOC(C)(CCC13)O[C@H]4O[C@]2(C)COS(=O)(=O)c1ccccc1` (single isomer, unassigned), the Cured/treated in the test with Mus musculus [5] worked out at 0.
As for `Cc1ccc(S(=O)(=O)OC[C@@]2(C)O[C@@H]3OC4(C)CCC5[C@H](C)CC[C@@H]2[C@]53OO4)cc1` (single isomer, unassigned), the Cured/treated in the test on Mus musculus [25] was 5.
`C[C@@H]1CC[C@@H]2[C@]34OOC(C)(CCC13)O[C@H]4O[C@]2(C)COC=O` (single isomer, unassigned) had a Cured/treated in the test with Mus musculus [22] of 0.
In the test on Mus musculus [4], `C[C@@H]1CC[C@@H]2[C@]34OOC(C)(CCC13)O[C@H]4O[C@]2(C)CC(=O)Oc1ccc([N+](=O)[O-])cc1` (single isomer, unassigned) displayed a Cured/treated of 1.
`C[C@@H]1CC[C@@H]2[C@]34OOC(C)(CCC13)O[C@H]4O[C@]2(C)COC(=O)CCCCl` (single isomer, unassigned) returned a Cured/treated in the test with Mus musculus [2] of 0.
Still for that read-out and setting: in the case of `C[C@@H]1CC[C@@H]2[C@]34OOC(C)(CCC13)O[C@H]4O[C@]2(C)COS(C)(=O)=O` (single isomer, unassigned) it was 0.
The same measure, in the same setting: under `C[C@@H]1CC[C@@H]2[C@]34OOC(C)(CCC13)O[C@H]4O[C@]2(C)COC(=O)CCl` (single isomer, unassigned) stands 0.
On to `CCOC(=O)[C@@]1(C)O[C@@H]2OC3(C)CCC4[C@H](C)CC[C@@H]1[C@]42OO3` (single isomer, unassigned), for which the Cured/treated in the test with Mus musculus [26] is 0.
Same read-out and setting: under `C[C@@H]1CC[C@@H]2[C@]34OOC(C)(CCC13)O[C@H]4O[C@]2(C)C(=O)OCCCCCCCCCl` (single isomer, unassigned) stands 0.
`C[C@@H]1CC[C@@H]2[C@]34OOC(C)(CCC13)O[C@H]4O[C@]2(C)C(=O)OCCCCl` (single isomer, unassigned) registered a Cured/treated with Mus musculus [2] of 0.
The compound `C[C@@H]1CC[C@@H]2[C@]34OOC(C)(CCC13)O[C@H]4O[C@]2(C)C(=O)N1CCOCC1` (single isomer, unassigned) yielded a Cured/treated with Mus musculus [5] of 0.
Consider `C[C@@H]1CC[C@@H]2[C@]34OOC(C)(CCC13)O[C@H]4O[C@]2(C)COC(=S)N1CCN(c2cccc(C(F)(F)F)c2)CC1` (single isomer, unassigned), for which the Cured/treated with Mus musculus [2] was determined as 0.
